Experimental data reported in patent publication US12642270B2, “Substituted thiophene carboxamides, thiophene carboxylic acids and derivatives thereof” (Bayer Aktiengesellschaft, priority 2019, dated 2026).

Experiment: Log P by HPLC on reversed phase columns (EEC directive 79/831 Annex V.A8)
Format: physicochemical
Conditions: method [a]
How it was run: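 Values come from retention times calibrated against alkan-2-ones (3–16 carbons) by linear interpolation, using reversed-phase LC-UV per EEC directive 79/831 Annex V.A8. Acetonitrile gradient 10–95% with 0.1% formic acid [a], 0.001 M ammonium acetate [b] or 0.1% phosphoric acid [c]; several values within one method separated by "+".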

| SMILES | LogP |
| --- | --- |
| CC(C)OC(=O)C(NC(=O)c1sc(Br)c(Br)c1Cl)C1CC1 (centres unmarked) [1.0886] | 4.89^[a] |
| O=C(NC1(C(=O)OCC2CC2)CCC1)c1sc(Br)c(Br)c1Cl [1.0887] | 4.81^[a] |
| O=C(NC1(C(=O)OC2CCC2)CCC1)c1sc(Cl)c(Cl)c1Br [1.0889] | 4.93^[a] |
| CCCCOC(=O)C1(NC(=O)c2sc(Cl)c(Cl)c2Br)CCC1 [1.0890] | 5.20^[a] |
| CC(C)(C)OC(=O)C1(NC(=O)c2sc(Cl)c(Cl)c2Br)CCC1 [1.0891] | 5.28^[a] |
| CCOC(=O)CNC(=O)c1sc(Cl)c(C)c1Cl [1.0893] | 3.07^[a] |
| NC(=O)CNC(=O)c1sc(Br)c(Br)c1F [1.0894] | 1.69^[a] |
| N#CNC(=O)C1(NC(=O)c2sc(Br)c(Br)c2F)CC1 [1.0895] | 2.38^[a] |
| NC(=S)CNC(=O)c1sc(Br)c(Br)c1F [1.0896] | 2.25^[a] |
| CC(C)(C)OC(=O)C1(NC(=O)c2sc(Br)c(Br)c2Cl)CC1 [1.0898] | 5.28^[a] |
| CCOC(=O)CNC(=O)c1cc(Cl)c(F)s1 [1.0899] | 2.23^[a] |
| NC(=S)C1(NC(=O)c2sc(Br)c(Br)c2F)CC1 [1.0900] | 2.42^[a] |
| COC(=O)C1(NC(=O)c2cc(Cl)c(F)s2)CC1 [1.0901] | 2.13^[a] |
| CC(C)(C)OC(=O)C(NC(=O)c1sc(Cl)c(Cl)c1Br)C1CC1 (centres unmarked) [1.0902] | 5.41^[a] |
| COC(=O)CNC(=O)c1cc(Cl)c(F)s1 [1.0906] | 1.90^[a] |
| O=C(NC1(C(=O)OC2CCC2)CCC1)c1sc(Br)c(Br)c1Cl [1.0908] | 4.97^[a] |
| C#CCOC(=O)CNC(=O)c1sc(C#N)c(Cl)c1Cl [1.0911] | 2.63^[a] |
| C=CCOC(=O)C1(NC(=O)c2sc(Cl)c(Cl)c2C#N)CC1 [1.0913] | 2.91^[a] |
| Cc1c(C(=O)NCC(N)=O)sc(C#N)c1Cl [1.0914] | 1.34^[a] |
| Cc1c(C(=O)NCC(N)=O)sc(C#N)c1Br [1.0915] | 1.38^[a] |
| N#Cc1c(C(=O)NCC(N)=O)sc(Cl)c1Cl [1.0916] | 1.47^[a] |
| O=C(NC1(C(=O)OC2CCCCC2)CCC1)c1sc(Br)c(Br)c1Cl [1.0918] | 5.89^[a] |
| O=C(NC1(C(=O)OCC2CC2)CCC1)c1sc(Br)c(Br)c1F [1.0924] | 4.33^[a] |
| O=C(NC1(C(=O)OCc2ccccc2)CCC1)c1sc(Br)c(Br)c1F [1.0927] | 4.59^[a] |
| CCCOC(=O)C1(NC(=O)c2sc(Br)c(Br)c2F)CCC1 [1.0928] | 4.30^[a] |

Now from value to molecule:

| LogP | SMILES |
| --- | --- |
| 5.00^[a] | O=C(NC1(C(=O)OCc2ccccc2)CCC1)c1sc(Cl)c(Cl)c1Br [1.0888] |
| 2.64^[a] | COC(=O)CNC(=O)c1sc(Cl)c(C)c1Cl [1.0892] |
| 2.67^[a] | COC(=O)C1(NC(=O)c2sc(C)c(Cl)c2Cl)CC1 [1.0897] |
| 5.08^[a] | O=C(NC(C(=O)OC1CCC1)C1CC1)c1sc(Cl)c(Cl)c1Br (centres unmarked) [1.0903] |
| 4.89^[a] | CC(C)OC(=O)C(NC(=O)c1sc(Cl)c(Cl)c1Br)C1CC1 (centres unmarked) [1.0904] |
| 4.78^[a] | O=C(NC1(C(=O)OCC2CC2)CCC1)c1sc(Cl)c(Cl)c1Br [1.0905] |
| 5.20^[a] | CCCCOC(=O)C1(NC(=O)c2sc(Br)c(Br)c2Cl)CCC1 [1.0907] |
| 5.00^[a] | O=C(NC1(C(=O)OCc2ccccc2)CCC1)c1sc(Br)c(Br)c1Cl [1.0909] |
| 2.58^[a] | C#CCOC(=O)CNC(=O)c1sc(Cl)c(Cl)c1C#N [1.0910] |
| 3.00^[a] | C=CCOC(=O)C1(NC(=O)c2sc(C#N)c(Cl)c2Cl)CC1 [1.0912] |
| 4.78^[a] | CCCOC(=O)C1(NC(=O)c2sc(Br)c(Br)c2Cl)CCC1 [1.0917] |
| 2.80^[a] | NC(=S)C1(NC(=O)c2sc(Br)c(Br)c2Cl)CC1 [1.0919] |
| 2.31^[a] | CNC(=O)C1(NC(=O)c2sc(Br)c(Br)c2Cl)CC1 [1.0920] |
| 4.78^[a] | CC(C)(C)OC(=O)C1(NC(=O)c2sc(Br)c(Br)c2F)CCC1 [1.0925] |
| 4.74^[a] | CCCCOC(=O)C1(NC(=O)c2sc(Br)c(Br)c2F)CCC1 [1.0926] |
| 5.28^[a] | O=C(NC1(C(=O)OC2CCCCC2)CCC1)c1sc(Br)c(Br)c1F [1.0929] |
| 4.47^[a] | O=C(NC1(C(=O)OC2CCC2)CCC1)c1sc(Br)c(Br)c1F [1.0930] |

Same assay, conditions: method marker [a] given with each value; Table 1.1, compounds of formula (I)

| SMILES | LogP |
| --- | --- |
| CCOC(=O)CN(C(=O)c1sc(Br)c(Br)c1Cl)C1CC1 [1.0935] | 3.81^[a] |
| CCOC(=O)CN(C(=O)c1sc(Cl)c(Br)c1Cl)C1CC1 [1.0936] | 3.80^[a] |
| CCOC(=O)CN(C(=O)c1sc(Cl)c(Cl)c1Br)C1CC1 [1.0937] | 3.81^[a] |
| CCOC(=O)CN(C(=O)c1sc(Br)c(Br)c1F)C1CC1 [1.0938] | 3.64^[a] |
| COC(=O)C(C)(Cc1ccccc1)NC(=O)c1sc(Br)c(Br)c1F (centres unmarked) [1.0954] | 4.64^[a] |
| C#CCOC(=O)CNC(=O)c1sc(Br)c(Br)c1Cl [1.0959] | 3.20^[a] |
| O=C(CNC(=O)c1sc(Br)c(Br)c1Cl)OC1CC1 [1.0960] | 3.39^[a] |
| C=CCOC(=O)CNC(=O)c1sc(Br)c(Br)c1Cl [1.0961] | 3.50^[a] |
| C=CCOC(=O)C1(NC(=O)c2sc(C#N)c(Br)c2C)CC1 [1.0962] | 2.81^[a] |
| Cc1c(C(=O)NC2(C(=O)OC(C)C)CC2)sc(C#N)c1Br [1.0964] | 2.93^[a] |
| Cc1c(C(=O)NCC(=O)OC2CCCC2)sc(C#N)c1Br [1.0965] | 3.24^[a] |
| Cc1c(C(=O)NC2(C(=O)OCC(C)C)CC2)sc(C#N)c1Br [1.0970] | 3.33^[a] |
| Cc1c(C(=O)NC2(C(=O)OC(C)(C)C)CC2)sc(C#N)c1Br [1.0971] | 3.28^[a] |
| CCCCOC(=O)CNC(=O)c1sc(C#N)c(Br)c1C [1.0972] | 3.23^[a] |
| CCOC(=O)C(NC(=O)c1sc(C#N)c(Br)c1C)C1CC1 (centres unmarked) [1.0974] | 3.15^[a] |
| Cc1c(C(=O)NC2(C(=O)OCc3ccccc3)CC2)sc(C#N)c1Br [1.0975] | 3.39^[a] |
| CN(C)C(=S)C1(NC(=O)c2sc(Br)c(Br)c2F)CC1 [1.0977] | 2.93^[a] |

| SMILES | LogP |
| --- | --- |
| Cc1c(C(=O)NC2(C(=O)OC3CCCC3)CC2)sc(C#N)c1Br [1.0980] | 3.36^[a] |
| Cc1c(C(=O)NCC(=O)OC(C)(C)C)sc(C#N)c1Br [1.0981] | 3.14^[a] |
| CCCOC(=O)CNC(=O)c1sc(Br)c(Br)c1Cl [1.0983] | 3.76^[a] |
| O=C(CNC(=O)c1sc(Br)c(Br)c1Cl)OCC1CC1 [1.0985] | 3.79^[a] |
| O=C(CNC(=O)c1sc(Br)c(Br)c1Cl)OC1CCCC1 [1.0988] | 4.28^[a] |
| O=C(CNC(=O)c1sc(Br)c(Br)c1Cl)OCc1ccccc1 [1.0990] | 4.15^[a] |
| CCOC(=O)C(NC(=O)c1sc(Br)c(Br)c1Cl)C1CC1 (centres unmarked) [1.0991] | 4.34^[a] |
| C#CCOC(=O)CNC(=O)c1sc(C#N)c(Br)c1C [1.0992] | 2.43^[a] |
| Cc1c(C(=O)NCC(=O)OC2CC2)sc(C#N)c1Br [1.0993] | 2.54^[a] |
| C=CCOC(=O)CNC(=O)c1sc(C#N)c(Br)c1C [1.0994] | 2.65^[a] |
| O=C(CNC(=O)c1sc(Br)c(Br)c1Cl)SCc1ccccc1 [1.0997] | 4.62^[a] |
| CC(C)COC(=O)CNC(=O)c1sc(Br)c(Br)c1F [1.1000] | 3.88^[a] |
| CN(C)C(=S)CNC(=O)c1sc(Br)c(Br)c1F [1.1002] | 3.19^[a] |
| COC(=O)C1(NC(=O)c2sc(Cl)c(Br)c2Cl)CCC1 [1.1003] | 3.74^[a] |
| N#CCOC(=O)CNC(=O)c1sc(Br)c(Br)c1F [1.1008] | 2.67^[a] |
| CC(C)C(C#N)NC(=O)c1sc(Br)c(Br)c1F (centres unmarked) [1.1010] | 3.54^[a] |
| CC(C)C(C#N)NC(=O)c1sc(Cl)c(Cl)c1Br (centres unmarked) [1.1013] | 3.84^[a] |

Other lines, results leading:

| LogP | SMILES |
| --- | --- |
| 4.52^[a] | COC(=O)C(Cc1ccc(Cl)cc1)NC(=O)c1sc(Br)c(Br)c1F (centres unmarked) [1.0955] |
| 2.61^[a] | C#CCOC(=O)C1(NC(=O)c2sc(C#N)c(Br)c2C)CC1 [1.0963] |
| 2.98^[a] | CCCOC(=O)C1(NC(=O)c2sc(C#N)c(Br)c2C)CC1 [1.0966] |
| 3.10^[a] | Cc1c(C(=O)NCC(=O)Oc2ccccc2)sc(C#N)c1Br [1.0967] |
| 3.13^[a] | Cc1c(C(=O)NC2(C(=O)OC3CCC3)CC2)sc(C#N)c1Br [1.0968] |
| 3.36^[a] | CCCCOC(=O)C1(NC(=O)c2sc(C#N)c(Br)c2C)CC1 [1.0969] |
| 3.26^[a] | Cc1c(C(=O)NCC(=O)OCc2ccccc2)sc(C#N)c1Br [1.0973] |
| 2.82^[a] | CNC(=S)C1(NC(=O)c2sc(Br)c(Br)c2F)CC1 [1.0976] |
| 2.86^[a] | COC(=O)C1(NC(=O)c2sc(Cl)c(C)c2Cl)CC1 [1.0978] |
| 3.32^[a] | COC(=O)C1(NC(=O)c2sc(Br)c(Br)c2F)CCC1 [1.0979] |
| 2.86^[a] | Cc1c(C(=O)NCC(=O)OCC2CC2)sc(C#N)c1Br [1.0982] |
| 2.76^[a] | N#CCCOC(=O)CNC(=O)c1sc(Br)c(Br)c1Cl [1.0984] |
| 4.20^[a] | CC(C)(C)OC(=O)CNC(=O)c1sc(Br)c(Br)c1Cl [1.0986] |
| 4.22^[a] | CCCCOC(=O)CNC(=O)c1sc(Br)c(Br)c1Cl [1.0987] |
| 3.93^[a] | O=C(CNC(=O)c1sc(Br)c(Br)c1Cl)Oc1ccccc1 [1.0989] |
| 2.81^[a] | CCCOC(=O)CNC(=O)c1sc(C#N)c(Br)c1C [1.0995] |
| 2.09^[a] | Cc1c(C(=O)NCC(=O)OCCC#N)sc(C#N)c1Br [1.0996] |
| 5.45^[a] | CCSC(=O)C(NC(=O)c1sc(Br)c(Br)c1Cl)C(C)C (centres unmarked) [1.0998] |
| 4.23^[a] | CCOC(=O)CNC(=S)c1sc(Br)c(Br)c1F [1.0999] |
| 2.56^[a] | CNC(=S)CNC(=O)c1sc(Br)c(Br)c1F [1.1001] |
| 3.85^[a] | COC(=O)C1(NC(=O)c2sc(Cl)c(Cl)c2Br)CCC1 [1.1004] |
| 3.37^[a] | O=C(CNC(=O)c1sc(Br)c(Br)c1F)OC1CSC1 [1.1007] |
